Measurements: patent US12708673B2, “Methods and compositions related to peptides and proteins with c-terminal elements” (Sanford Burnham Prebys Medical Discovery Institute, priority 2008, dated 2026)
“Also recorded” adds a separate entry of the source. Ends that are not written are not given here.

Key:
Type in all cases: cell-based, human
PPC-1 cells [1] = assay: T7 phage internalization into PPC-1 (PPC1) cells at 37° C. (acid wash and titration, or anti-T7 staining and confocal imaging); conditions: for Internalization into PPC1 cells compared to native iRGD phage: truncated versions of iRGD phage; for Effect of endocytosis inhibitor on uptake of CendR peptides (RPARPAR phage internalization): 90 minutes at 37° C., acid wash and titration; for Phage internalization into PPC-1 cells (in words): 37° C.
Experimental: (§1) FIG. 2A: Binding of T7 phage to prostate cancer cells depends on the display of a C-terminal arginine on the phage particles. PPC1 cells were incubated with T7 bacteriophage displaying derivatives of the G7 (upper graph) or RPARPAR peptide (SEQ ID NO: 2) (lower graph) at 4° C., and the bound phage was quantified by plaque assay. Binding is expressed in fold over of the non-binding G7 control phage. FIG. 2B: Phage displaying C-terminal arginine is internalized into cultured PPC1 cells (arrow, nuclear internalization; arrowhead, cytoplasmic internalization). A panel of T7 phage clones were incubated at 37° C. with PPC1 cells grown on collagen-coated coverslips, stained with anti T7 antibody and imaged by confocal microscopy.
(§2) Phage display. For in vivo phage display, mice were injected intravenously with 10^10 plaque-forming units (pfu) of T7 phage followed by perfusion of the circulatory system and determination of the bound phage in target organs by titration. For cell binding studies on cultured cells (in vitro display) and organ-derived cell suspensions (ex vivo display), the cells were incubated with 10^9 pfu of phage at 4° C., washed, lysed, and quantified by titration. Incubation at 37° C. followed by low pH wash (glycine-HCl, pH 2.5) was used to assess the amount of internalized phage.
(§3) For biopanning and phage binding studies (Hoffman, J. A. et al., 2004), cultured cells were grown to confluence and harvested with trypsin and mouse organs were dissociated using Medimachine (BD Biosciences, San Jose, CA). To measure phage binding, 10^6 cells in binding buffer (DMEM containing 1% BSA) were incubated with 10^9 pfu/ml of T7 phage for 1 hour at 4° C. The cells were washed 4 times with the binding buffer, lysed in LB bacterial growth medium containing 1% NP-40, and titrated. Phage internalization assays used the same procedure, except that the cells were incubated with the phage at 37° C., and that an acidic buffer (500 mM sodium chloride, 0.1 M glycine, 1% BSA, pH 2.5) was used instead of binding buffer in the second wash.
(§4) Centrifugation on a silicone oil cushion (1.03 g/ml) was used to separate unbound phage from cells during time course experiments. Inhibitors of phage binding and internalization (heparin, chondroitin, glycocalyx removal enzymes, endocytosis inhibitors, free peptides, quantum dots and UV-inactivated phage) were added to the cells 20 minutes prior to incubation with phage. Endocytosis inhibitors used in this study were the following: nystatin (50 μg/ml), genistein (100 μg/ml), chlorpromazine (5 μg/ml), 5-(N-ethyl-N-isopropyl) amiloride (100 μM), wortmannin (10 μM).
Immunofluorescence staining. Cultured cells (2×10^5 cells) were grown in 6-well tissue culture plates on collagen-I coated coverslips (BD Biosciences, San Jose, CA) overnight at 37° C. in 5% CO2, and incubated with 10^8 pfu of T7 phage. The cells were fixed in 4% paraformaldehyde or cold (−20° C.) methanol, and stained with antibodies. Nuclei were stained with DAPI or […]. A polyclonal rabbit anti-T7 antibody was generated in-house as described previously (Laakkonen, P. et al. 2002b), except that an additional phage purification step using […] centrifugation was included. Other primary antibodies used were rat anti-mouse CD31 monoclonal antibody (BD Biosciences), rabbit anti-NRP-1, mouse anti-human Lamp-1, mouse anti-human caveolin (Millipore, Temecula, CA), mouse anti-NRP-1 (Miltenyi Biotec Inc., Auburn, CA), mouse anti-human EEA-1 (BD Biosciences, San Jose, CA). The secondary antibodies, Alexa594 goat antibodies to mouse, rat, and rabbit immunoglobulins and Alexa488 donkey anti-rabbit antibody were from Invitrogen (Carlsbad, CA). Cells and tissue sections were examined by confocal microscopy (Fluoview 500, Olympus America Inc., Center Valley, PA).

PPC-1 cells [2] = assay: T7 phage binding to PPC-1 (PPC1) cells at 4° C., quantified by titration/plaque assay; conditions: for Effect of glycosaminoglycan digestion or competition on RPARPAR phage binding: data not shown
Experimental: as §1, §2, §3, §4

PPC-1 cells [3] = assay: Protease treatment of phage followed by phage binding assay on PPC-1 cells at 4° C.
Experimental: 5×10^8 phage particles were incubated with indicated volumes of 2.5% trypsin at 37° C. for 20 min, followed by incubation of the phage with 1×10^6 PPC1 cells at 4° C. for 3 hours. Binding is expressed as fold over non-binding G7 control phage (the internalization of which was not affected by the trypsin treatment).
10^9 pfu of RPARPARA (SEQ ID NO:3) phage was treated with indicated amounts of trypsin at 37° C. followed by phage binding assay at 4° C. The data are representative of 4 independent binding experiments.
FIGS. 20A-20C show urokinase dependent CendR peptide. FIG. 20A: The design of a uPA-activatable CendR peptide (uCendR). […] Statistical analysis was performed with ANOVA (b); n=3; error bars indicate s.d.; triple asterisk, p<0.001. Scale bars: 20 μm.
as §3
Protease treatment of phage and qdots. 10^9 phage particles or 50 μl of peptide-coated qdots phage were treated with 50 iu of uPA, 25 μg of crystalline trypsin, 50 iu of thrombin, or 25 μg of collagenase type I (all Sigma, St. Louis, Mo).

PPC-1 cells [4] = assay: Binding and internalization of peptide-coated quantum dots by PPC-1 cells (confocal/fluorescence microscopy)
PPC-1 cells [5] = assay: Confocal immunofluorescence co-staining of phage/qdots with cellular markers in PPC-1 cells; conditions: immunofluorescent co-staining

CRGDKG [CRGDKG phage]
Internalization into PPC1 cells compared to native iRGD phage (PPC-1 cells [1]): higher ability to internalize

CCN(c1nc(N)c(C(=O)N=C(N)N)nc1Cl)C(C)C [5-(N-ethyl-N-isopropyl) amiloride, reference compound]
Effect of endocytosis inhibitor on uptake of CendR peptides (RPARPAR phage internalization) (PPC-1 cells [1]): None of these inhibitors affected the uptake

RGERPPR [RGERPPR phage]
Phage internalization into PPC-1 cells (in words) (PPC-1 cells [1]): robust binding and internalization
Phage binding to PPC-1 cells (in words) (PPC-1 cells [2]; 4° C.): robust binding and internalization

RPARSGRSAGGSVA [uPA-CendR phage]
Effect of phage treatment with collagenase-I on binding (PPC-1 cells [3]; 25 μg of collagenase type I): had no effect
Effect of phage treatment with thrombin on binding (PPC-1 cells [3]; 50 iu of thrombin): had no effect
Elevation of binding by pretreatment with uPA (PPC-1 cells [3]; 50 iu of uPA prior to cell binding): more than 100 fold
Binding of untreated phage to PPC-1 cells over control G7 phage (PPC-1 cells [3]; no protease treatment): did not bind
Effect of trypsin treatment of phage on binding (in words) (PPC-1 cells [3]; trypsin): greatly enhanced the binding

RPARSGRSAGGSVA (also: biotinylated, site not given here, on streptavidin quantum dot) [uCendR qdots]
Internalization of untreated qdots (PPC-1 cells [4]; no uPA treatment): are not internalized
Internalization of qdots after uPA treatment (PPC-1 cells [4]): triggers internalization
Internalization of qdots after uPA treatment (PPC-1 cells [4]; listed as RPARSGRSAGGSVA qdots): internalized in uPA sensitive fashion

ATWLPPR [A7R phage, reference compound]
Phage binding to PPC-1 cells (in words) (PPC-1 cells [2]; 4° C.): bound

heparin [reference compound]
Effect of glycosaminoglycan digestion or competition on RPARPAR phage binding (PPC-1 cells [2]): had no effect

chondroitin sulfate [reference compound]
Effect of glycosaminoglycan digestion or competition on RPARPAR phage binding (PPC-1 cells [2]): had no effect

RVTRPPR [RVTRPPR phage]
Phage internalization into PPC-1 cells (in words) (PPC-1 cells [1]): robust binding and internalization
Phage binding to PPC-1 cells (in words) (PPC-1 cells [2]; 4° C.): robust binding and internalization

chondroitinase ABC [reference compound]
Effect of glycosaminoglycan digestion or competition on RPARPAR phage binding (PPC-1 cells [2]): had no effect

RPARPAR (also: biotinylated, site not given here, on streptavidin quantum dot) [RPARPAR qdots, streptavidin quantum dots coated with biotinylated RPARPAR peptide with free C-terminus]
Co-localization with NRP-1 (PPC-1 cells [5]): co-localize with NRP-1 at the cell surface and inside the cells
Effect of excess qdots on G6R phage binding (PPC-1 cells [2]; 4° C.): blocked
Effect of preincubating cells with qdots on binding of RPARPAR, RGERPPR and RVTRPPR phage (PPC-1 cells [2]; 4° C.): inhibited
Effect of qdots on binding and internalization of RPARPAR phage (PPC-1 cells [2]; bound at 4° C., internalized at 37° C. with low pH wash): inhibited both the binding and internalization of RPARPAR phage
Binding and internalization of peptide-coated qdots (in words) (PPC-1 cells [4]): robust binding and internalization; also recorded: bound and were internalized in a manner indistinguishable from the phage particles
Time to perinuclear accumulation (PPC-1 cells [4]; qdots, 37° C., live cells): 1 h
Time to plasma membrane association (PPC-1 cells [4]; qdots, 37° C., live cells): 15 min

CG7C [CG7C control phage, reference compound]
Phage internalization into PPC-1 cells (in words) (PPC-1 cells [1]): does not

C[C@@H]1[C@H](O)[C@@H](C)/C=C/C=C/CC/C=C/C=C/C=C/C=C/C(O[C@H]2O[C@H](C)[C@@H](O)[C@H](N)[C@@H]2O)CC2O[C@](O)(CC(O)C(O)CCC(O)CC(O)CC(O)CC(=O)O[C@H]1C)CC(O)C2C(=O)O (some centres unmarked) [nystatin, reference compound]
Effect of endocytosis inhibitor on uptake of CendR peptides (RPARPAR phage internalization) (PPC-1 cells [1]): None of these inhibitors affected the uptake

CN(C)CCCN1c2ccccc2Sc2ccc(Cl)cc21 [chloropromazine, reference compound]
Effect of endocytosis inhibitor on uptake of CendR peptides (RPARPAR phage internalization) (PPC-1 cells [1]): None of these inhibitors affected the uptake

RPARPAR-NH2 [RPARPAR-NH2 qdots]
Binding and internalization of peptide-coated qdots (in words) (PPC-1 cells [4]): abolished the binding and internalization; also recorded: blocked qdot internalization

N=C(N)NC(=O)c1nc(Cl)c(N)nc1N [Amiloride, reference compound]
Effect on uptake of uPA-CendR qdots (PPC-1 cells [4]): inhibited uptake

GGGGGGR [G6R phage]
Phage binding to PPC-1 cells (in words) (PPC-1 cells [2]; 4° C.): weak phage binding

CRGDK [CRGDK phage]
Internalization into PPC1 cells compared to native iRGD phage (PPC-1 cells [1]): higher ability to internalize

O=c1c(-c2ccc(O)cc2)coc2cc(O)cc(O)c12 [genistein, reference compound]
Effect of endocytosis inhibitor on uptake of CendR peptides (RPARPAR phage internalization) (PPC-1 cells [1]): None of these inhibitors affected the uptake

D-rparpar [D-rparpar qdots]
Binding and internalization of peptide-coated qdots (in words) (PPC-1 cells [4]): greatly reduced ability to trigger uptake of quantum dots

TKPPR [enhanced tuftsin phage, reference compound]
Phage binding to PPC-1 cells (in words) (PPC-1 cells [2]; 4° C.): bound

RPARPARA (also: biotinylated, site not given here, on streptavidin quantum dot) [RPARPARA qdots]
Binding and internalization of peptide-coated qdots (in words) (PPC-1 cells [4]): prevented

RPAR [RPAR phage]
Effect of UV-inactivated phage on CRGDK phage internalization (PPC-1 cells [1]; pre-incubation, various concentrations): inhibited by RPAR phage in a dose-dependent fashion

B1: heparinase III: enzyme used for digestion of cell surface glycosaminoglycans (protein, UniProt Q59289 25-659, looked up)
Heparin-sulfate lyase: QSSSITRKDFDHINLEYSGLEKVNKAVAAGNYDDAAKALLAYYREKSKAREPDFSNAEKPADIRQPIDKVTREMADKALVHQFQPHKGYGYFDYGKDINWQMWPVKDNEVRWQLHRVKWWQAMALVYHATGDEKYAREWVYQYSDWARKNPLGLSQDNDKFVWRPLEVSDRVQSLPPTFSLFVNSPAFTPAFLMEFLNSYHQQADYLSTHYAEQGNHRLFEAQRNLFAGVSFPEFKDSPRWRQTGISVLNTEIKKQVYADGMQFELSPIYHVAAIDIFLKAYGSAKRVNLEKEFPQSYVQTVENMIMALISISLPDYNTPMFGDSWITDKNFRMAQFASWARVFPANQAIKYFATDGKQGKAPNFLSKALSNAGFYTFRSGWDKNATVMVLKASPPGEFHAQPDNGTFELFIKGRNFTPDAGVFVYSGDEAIMKLRNWYRQTRIHSTLTLDNQNMVITKARQNKWETGNNLDVLTYTNPSYPNLDHQRSVLFINKKYFLVIDRAIGEATGNLGVHWQLKEDSNPVFDKTKNRVYTTYRDGNNLMIQSLNADRTSLNEEEGKVSYVYNKELKRPAFVFEKPKKNAGTQNFVSIVYPYDGQKAPEISIRENKGNDFEKGKLNLTLTINGKQQLVLVP
Effect of glycosaminoglycan digestion or competition on RPARPAR phage binding (PPC-1 cells [2]): had no effect
